Counter-ions that a name gives are not always drawn. Like-named read-outs stand apart in the source and are kept apart here. Marks after values point to notes of the source that are not given here.
What was measured:
WiDr cells [1] = settings: MTS assay; for Dark toxicity (cell toxicity in the absence of light): 0.001-1 mM, 4 hours incubation in the dark
Description: Stock solutions of the compounds above were prepared by dissolving them in DMSO to a concentration of 100 mM. Concentrations used in the experiments were obtained by diluting the stock solutions with PBS or cell culture medium.
WiDr cells derived from a primary adenocarcinoma of the rectosigmoid colon were subcultured in RPMI 1640 medium (Gibco) containing 10% fetal calf serum, 100 U/ml penicillin, 100 μg/ml streptomycin and 1% glutamine. Cells were split 1:100 twice a week, and maintained at 37° C. and 5% CO2 in a humid environment. For carrying out the experiments, 5×10^5 WiDr cells in 2 ml of the medium described above were added to each well of 6-well plastic tissue-culture plates (Nunc) and left for 48 hr at 37° C. and 5% CO2 in a humid environment for proper attachment to the substrate. The cells were then washed twice with RPMI 1640-medium without serum, followed by the addition to the wells of the appropriate dilutions of the compounds and references above in 2 ml of fresh culture medium to final concentrations of 0.001, 0.003, 0.01, 0.03, 0.1, 0.3 and 1 mM in duplicates. To two wells, only 2 ml of fresh culture medium was added. These untreated cells served as a control. The cells were incubated at 37° C. for four hours in the dark.
Dark toxicity, i.e. cell toxicity in the absence of light, was measured by MTS assay immediately after the above-described 4 hours of incubation with the compounds and references at various concentrations.

WiDr cells [2] = test: In vitro PpIX formation in cancer cells; type: cell-based
Description: These untreated cells served as a control.
After treatment with the compounds of the invention and reference compounds as described above, the cells were washed twice with PBS and scraped off the substrate with a Costar cell scraper into a solution of 1M HClO4 in 50% methanol. Cell debris was removed by centrifugation. PpIX was quantitatively extracted from the cells with this procedure. The PpIX content in each sample was determined fluorometrically using a Perkin Elmer LS50B spectrofluorimeter. PpIX was excited at 407 nm, and the emitted fluorescence was measured at 606 nm using a long pass cut-off filter (530 nm) on the emission side. A standard of known PpIX concentration was added to the samples at concentrations increasing the total fluorescence by 50-100%. The PpIX concentration in each sample was calculated relative to the protein content in control cells as measured by a bicinchoninic acid protein assay.

[3] = test system: UV-damaged mouse skin versus healthy mouse skin; test: In vivo skin fluorescence in healthy nude mice and nude mice with UV-damaged skin; settings: nude mice; for Ratio of skin fluorescence in UV-damaged mouse skin to skin fluorescence in healthy mouse skin: equimolar creams (16% / 14%), about 125 μl, tape-stripped skin, 3 hours in the dark, 10 mice per group; for Selectivity for UV-damaged skin: equimolar creams, 3 hours
Description: An experiment was carried out to assess the potential for compound 6 to show selective accumulation in UV-damaged skin. For the assessment, skin fluorescence after application of the compound was measured in vivo in healthy mouse skin and in UV-damaged mouse skin. A nude mice model with UV-damaged skin (actinic damage) was established as described by K. Togsverd-Bo et al., Exp. Dermatol. 2012, 21, 260-264.
Equimolar amounts of compound 2 (1-(isopropyl carboxy)ethyl 5-amino-4-oxopentanoate hydrochloride prepared according to Example 2) and compound 5 (3-carboxypropyl 5 amino-4-oxopentanoate hydrochloride prepared according to Example 5) were formulated as a cream in Unguentum Merck: compound 2: 16%, 160 mg/g and compound 5: 14%, 140 mg/g, respectively.
One group of healthy nude mice (10 mice, control group) and one group of nude mice with UV-damaged skin (10 mice) were included in the experiment. About 125 μl of cream formulation was applied onto the back of each mouse. Prior to cream application, the dorsal skin of each mouse was tape-stripped five times to enhance penetration of the compound: adhesive film (Scotch tape, 3M) was pressed onto the skin of the application area, the tape strip was removed with one quick movement and a new tape strip was used. The mice were kept in the dark for 3 hours prior to skin fluorescence measurement to avoid photobleaching. Skin fluorescence was assessed as described in Example 17 and the mean amount of skin fluorescence for each group of mice was calculated.
The ratio of skin fluorescence [a.u] in UV-damaged mouse skin to skin fluorescence [a.u.] in healthy mouse skin was determined.

[4] = test system: skin of healthy nude mice; test: In vivo skin fluorescence study in healthy nude mice; settings: cream in Unguentum Merck, equimolar (16-19%), about 100 μl on back, 6 hours in the dark, excitation 365 and 405 nm, mean of 5 mice
Description: A study was carried out to assess the potential of the compounds of the invention as precursors for photosensitisers for skin application. As such, the compounds of the invention need to be able to penetrate the skin, to be taken up by the cells in the skin and to be converted to photosensitisers. The result of this process can be visualized by exposing the skin to light which excites the photosensitiser molecules and to determine the amount of energy which is released in the form of fluorescence when the excited photosensitiser molecules relax to an energetically lower state.
Compounds 2, 4 and 7 above were formulated as creams in Unguentum Merck. The compounds were tested in equimolar amounts:
3 groups of mice (5 mice/group, each mouse of one group receiving the same cream formulation) were included in the experiment. About 100 μl of cream formulation was applied onto the back of one mouse. The mice were kept in the dark for 6 hours prior to skin fluorescence measurement to avoid photobleaching. For assessment of skin fluorescence, a fluorescence camera (Medeikonos PDD/PDT, Medeikonos AB, Gothenburg, Sweden) was used and images of the back of each mouse were taken. Excitation was carried out at wavelengths of 365 and 405 nm and 2 s illumination time. Each image was calibrated to a fluorescence standard (Uranyl Standard, J&M, Analytische Mess- and Regeltechnik GmbH, Hamburg, Germany) and adjusted for background fluorescence. The mean amount of skin fluorescence in each image was calculated by means of image analyzer-software (MatLab 7.2.0.232, Math-Works, Natick, Mass., USA) and the mean amount of skin fluorescence for each group of mice (5 mice/compound) was calculated.

[5] = test system: Rat bladder cells (AY-27); test: PpIX measurements in rat bladder cells; type: cell-based; settings: AY-27 cells, 2 hours incubation
Description: Rat bladder cells (AY-27) were grown in the culture medium (RPMI 1640 supplemented with 9% fetal calf serum 1% L-glutamin (200 mM) and 1% penicillin (10 000 UI), streptomycin (10 000 μg·mL^−1). Exponentially growing cells (AY-27) were incubated for 2 hours with freshly prepared solutions of 0.8 mM HAL (which is a tenth of the concentration which is used for bladder cancer […]). Control cells received serum-free medium without any test or reference compounds. After the incubation, the solutions or the medium was discarded and the cells were rinsed 2 times with ice-cooled PBS. PpIX was extracted from cells using an ice-cold lysis extraction mixture, consisting of ethanol/DMSO/acetic acid (80/20/1, v/v/v). The cell lysate was centrifuged (400 g, 10 min, 2° C.), the pellet was grinded and the suspension was sonicated for 15 min before being centrifuged. The fluorescence signal of PpIX was measured with a Perkin-Elmer LS 55 spectrometer (Perkin-Elmer, Beaconsfield, UK) and expressed as a function of the protein content. The fluorescence intensity at 635 nm in each sample was reported on a calibration curve established with PpIX (Sigma-Aldrich, France) diluted in extraction mixture as described above. The PpIX concentration was expressed relative to the protein content. Briefly, a lysis buffer mixture (1 mM EDTA, 1% Triton X-100 and 10 mM Tris-HCl; pH 7.4) was added to frozen cell dishes together with 500 mM PMSF (anti-protease) solution in DMSO. Lysates were kept on ice for 30 minutes and centrifuged at 4° C. for 20 minutes at 15 000 g. The protein content was then measured against a BSA calibration curve by a Biorad DC protein assay kit (Bio-Rad, France) based on a method developed by Lowry.

[6] = test system: Rat bladder cells (AY-27); test: Cytotoxicity in rat bladder cells (MTT test); type: cell-based; settings: AY-27 cells; for Cytotoxicity: 2 hours, MTT test; for Levels of cytotoxicity compared to HAL: compound at 1 mM
Description: All experiments were performed in 4-5 replicates under subdued light. For concentrations of compounds 1 mM, the cytotoxicity was assessed with MTT test. Exponentially growing cells were incubated with freshly prepared solution or medium as described above for 2 hours in 96-well plates. After the incubation, the solutions or the medium was discarded and the cells were washed twice with PBS. Then 50 μl of MTT (2.5 mg·ml^−1) was added to 150 μl of RPMI serum-free medium per well and incubated for 3 hours. Absorbance was measured by dissolving formazan crystals with 50 μl of DMSO. The absorbance was normalized to that of control cells.

[7] = WiDr cells, 0.001-1 mM, 4 hours incubation, * mean of two, ** mean of 3 experiments

Cl.NCC(=O)CCC(=O)O [ALA, 5-ALA hydrochloride, reference compound]
Dark toxicity (cell toxicity in the absence of light) (WiDr cells [1]): no cell toxicity was observed | Max. PpIX content (WiDr cells [2]; [7]): 80* ng/mg protein | Compound concentration for max PpIX formation (WiDr cells [2]; WiDr cells, 4 hours incubation): ≧1 mM

CC(C)OC(=O)C(C)OC(=O)CCC(=O)CN (centres unmarked) [Compound 2, 1-(isopropylcarboxy)ethyl 5-amino-4-oxopentanoate hydrochloride]
Ratio of skin fluorescence in UV-damaged mouse skin to skin fluorescence in healthy mouse skin [3]: 1.14 | Selectivity for UV-damaged skin [3]: some selectivity for UV-damaged skin | Skin fluorescence [4]: 31557 a.u.

NCC(=O)CCC(=O)OCCCC(=O)O [Compound 5, 3-carboxypropyl 5-amino-4-oxopentanoate hydrochloride]
PpIX Mean ± SD ([5]; 0.3 mM): 221 ± 32 pmoles/mg protein | PpIX Mean ± SD ([5]; 0.5 mM): 224 ± 35 pmoles/mg protein | PpIX Mean ± SD ([5]; 1 mM): 261 ± 52 pmoles/mg protein | PpIX Mean ± SD ([5]; 5 mM): 250 ± 83 pmoles/mg protein | PpIX Mean ± SD ([5]; 15 mM): 216 ± 11 pmoles/mg protein | Cytotoxicity ([6]; 1 mM): 17 % of control | Cytotoxicity ([6]; 5 mM): 30 % of control | Cytotoxicity ([6]; 15 mM): 37 % of control | Levels of cytotoxicity compared to HAL [6]: comparable and acceptable | Ratio of skin fluorescence in UV-damaged mouse skin to skin fluorescence in healthy mouse skin [3]: 2.72 | Selectivity for UV-damaged skin [3]: pronounced selectivity for UV-damaged skin | Dark toxicity (cell toxicity in the absence of light) (WiDr cells [1]): no cell toxicity was observed | Max. PpIX content (WiDr cells [2]; [7]): 30 ng/mg protein | Compound concentration for max PpIX formation (WiDr cells [2]; WiDr cells, 4 hours incubation): 1 mM

NCC(=O)CCC(=O)OCc1ccc(C(=O)O)cc1 [Compound 7, (4-carboxyphenyl)methyl 5-amino-4-oxopentanoate hydrobromide]
Skin fluorescence [4]: 2995 a.u.

NCC(=O)CCC(=O)OCCCCC(=O)O [Compound 8, 4-carboxybutyl 5-amino-4-oxopentanoate hydrochloride]
PpIX Mean ± SD ([5]; 0.3 mM): 243 ± 28 pmoles/mg protein | PpIX Mean ± SD ([5]; 0.5 mM): 219 ± 51 pmoles/mg protein | PpIX Mean ± SD ([5]; 1 mM): 258 ± 62 pmoles/mg protein | PpIX Mean ± SD ([5]; 5 mM): 234 ± 78 pmoles/mg protein | PpIX Mean ± SD ([5]; 15 mM): 213 ± 64 pmoles/mg protein | Cytotoxicity ([6]; 1 mM): 18 % of control | Cytotoxicity ([6]; 5 mM): 26 % of control | Cytotoxicity ([6]; 15 mM): 38 % of control | Levels of cytotoxicity compared to HAL [6]: comparable and acceptable

NCC(=O)CCC(=O)OCCCCCC(=O)O [Compound 9, 5-carboxypentyl 5-amino-4-oxopentanoate hydrochloride]
Dark toxicity (cell toxicity in the absence of light) (WiDr cells [1]): no cell toxicity was observed | Compound concentration for max PpIX formation (WiDr cells [2]): 1 mM | Max. PpIX content (WiDr cells [2]): 40 ng/mg protein

NCC(=O)CCC(=O)OCCCCCCCC(=O)O [Compound 10, 7-carboxyheptyl 5-amino-4-oxopentanoate hydrochloride]
Dark toxicity (cell toxicity in the absence of light) (WiDr cells [1]): no cell toxicity was observed | Compound concentration for max PpIX formation (WiDr cells [2]): 1 mM | Max. PpIX content (WiDr cells [2]): 55* ng/mg protein

NCC(=O)CCC(=O)OCCCCCCCCCC(=O)O [Compound 12, 9-carboxynonyl 5-amino-4-oxopentanoate hydrochloride]
Dark toxicity (cell toxicity in the absence of light) (WiDr cells [1]): no cell toxicity was observed | Max. PpIX content (WiDr cells [2]; [7]): 90* ng/mg protein | Compound concentration for max PpIX formation (WiDr cells [2]; WiDr cells, 4 hours incubation): 0.05 mM

NCC(=O)CCC(=O)OCCCCCCCCCCCC(=O)O [Compound 14, 11-carboxyundecyl 5-amino-4-oxopentanoate hydrochloride]
Dark toxicity (cell toxicity in the absence of light) (WiDr cells [1]): no cell toxicity was observed | Compound concentration for max PpIX formation (WiDr cells [2]): 0.1 mM | Max. PpIX content (WiDr cells [2]): 65* ng/mg protein

Cl.NCC(=O)CCC(=O)OCCCCCCCCCCCCCCCC(=O)O [Compound 15, 15-carboxypentadecyl 5-amino-4-oxopentanoate hydrochloride]
Concentrations at which compound was toxic (dark toxicity) (WiDr cells [1]; 4 hours in the dark): above 0.1 mM | Compound concentration for max PpIX formation (WiDr cells [2]): 0.1 mM | Max. PpIX content (WiDr cells [2]; [7]): 25 ng/mg protein

CCCCCCOC(=O)CCC(=O)CN.Cl [HAL, 5-ALA hexyl ester hydrochloride, reference compound]
Cytotoxicity ([6]; 0.8 mM): 15 % of control | Dark toxicity (cell toxicity in the absence of light) (WiDr cells [1]): weak cell toxicity | Minimum cell survival rate (WiDr cells [1]; range of 0.3 to 1 mM, 4 hours in the dark): 85% | Max. PpIX content (WiDr cells [2]; [7]): 94** ng/mg protein | Compound concentration for max PpIX formation (WiDr cells [2]; WiDr cells, 4 hours incubation): 0.1 mM

Source: patent US9249086B2, “Carboxylic acid ALA esters” (Photocure ASA, priority 2012, dated 2016)
